Data reported in ChEMBL document CHEMBL1140726, “Discovery and biological evaluation of 5-aryl-2-furfuramides, potent and selective blockers of the Nav1.8 sodium channel with efficacy in models of neuropathic and inflammatory pain” (J Med Chem, 2008).

Tests used:
[1] = Ratio of drug level in brain to plasma in Sprague-Dawley rat; assay type: ADME
[2] = target: Voltage-gated inwardly rectifying potassium channel KCNH2 (Homo sapiens, UniProt Q12809); test: Inhibition of hERG potassium channel expressed in CHO cells by isotope efflux assay
Translocator protein [3] = target: T1, Translocator protein (Homo sapiens, UniProt P30536); test: Binding affinity to peripheral benzodiazepine receptor
T1 sequence (P30536 whole entry): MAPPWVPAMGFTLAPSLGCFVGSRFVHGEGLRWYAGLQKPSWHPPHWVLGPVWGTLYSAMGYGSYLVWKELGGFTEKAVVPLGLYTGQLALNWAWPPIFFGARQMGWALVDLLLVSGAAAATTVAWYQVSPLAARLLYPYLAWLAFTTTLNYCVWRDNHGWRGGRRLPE

[4] = target: Sodium channel protein type 3 subunit alpha (Homo sapiens) (UniProt Q9NY46); test: Inhibition of human Nav1.3 channel at 3 uM
Chain of Sodium channel protein type 3 subunit alpha (Homo sapiens) (Q9NY46 whole entry, looked up): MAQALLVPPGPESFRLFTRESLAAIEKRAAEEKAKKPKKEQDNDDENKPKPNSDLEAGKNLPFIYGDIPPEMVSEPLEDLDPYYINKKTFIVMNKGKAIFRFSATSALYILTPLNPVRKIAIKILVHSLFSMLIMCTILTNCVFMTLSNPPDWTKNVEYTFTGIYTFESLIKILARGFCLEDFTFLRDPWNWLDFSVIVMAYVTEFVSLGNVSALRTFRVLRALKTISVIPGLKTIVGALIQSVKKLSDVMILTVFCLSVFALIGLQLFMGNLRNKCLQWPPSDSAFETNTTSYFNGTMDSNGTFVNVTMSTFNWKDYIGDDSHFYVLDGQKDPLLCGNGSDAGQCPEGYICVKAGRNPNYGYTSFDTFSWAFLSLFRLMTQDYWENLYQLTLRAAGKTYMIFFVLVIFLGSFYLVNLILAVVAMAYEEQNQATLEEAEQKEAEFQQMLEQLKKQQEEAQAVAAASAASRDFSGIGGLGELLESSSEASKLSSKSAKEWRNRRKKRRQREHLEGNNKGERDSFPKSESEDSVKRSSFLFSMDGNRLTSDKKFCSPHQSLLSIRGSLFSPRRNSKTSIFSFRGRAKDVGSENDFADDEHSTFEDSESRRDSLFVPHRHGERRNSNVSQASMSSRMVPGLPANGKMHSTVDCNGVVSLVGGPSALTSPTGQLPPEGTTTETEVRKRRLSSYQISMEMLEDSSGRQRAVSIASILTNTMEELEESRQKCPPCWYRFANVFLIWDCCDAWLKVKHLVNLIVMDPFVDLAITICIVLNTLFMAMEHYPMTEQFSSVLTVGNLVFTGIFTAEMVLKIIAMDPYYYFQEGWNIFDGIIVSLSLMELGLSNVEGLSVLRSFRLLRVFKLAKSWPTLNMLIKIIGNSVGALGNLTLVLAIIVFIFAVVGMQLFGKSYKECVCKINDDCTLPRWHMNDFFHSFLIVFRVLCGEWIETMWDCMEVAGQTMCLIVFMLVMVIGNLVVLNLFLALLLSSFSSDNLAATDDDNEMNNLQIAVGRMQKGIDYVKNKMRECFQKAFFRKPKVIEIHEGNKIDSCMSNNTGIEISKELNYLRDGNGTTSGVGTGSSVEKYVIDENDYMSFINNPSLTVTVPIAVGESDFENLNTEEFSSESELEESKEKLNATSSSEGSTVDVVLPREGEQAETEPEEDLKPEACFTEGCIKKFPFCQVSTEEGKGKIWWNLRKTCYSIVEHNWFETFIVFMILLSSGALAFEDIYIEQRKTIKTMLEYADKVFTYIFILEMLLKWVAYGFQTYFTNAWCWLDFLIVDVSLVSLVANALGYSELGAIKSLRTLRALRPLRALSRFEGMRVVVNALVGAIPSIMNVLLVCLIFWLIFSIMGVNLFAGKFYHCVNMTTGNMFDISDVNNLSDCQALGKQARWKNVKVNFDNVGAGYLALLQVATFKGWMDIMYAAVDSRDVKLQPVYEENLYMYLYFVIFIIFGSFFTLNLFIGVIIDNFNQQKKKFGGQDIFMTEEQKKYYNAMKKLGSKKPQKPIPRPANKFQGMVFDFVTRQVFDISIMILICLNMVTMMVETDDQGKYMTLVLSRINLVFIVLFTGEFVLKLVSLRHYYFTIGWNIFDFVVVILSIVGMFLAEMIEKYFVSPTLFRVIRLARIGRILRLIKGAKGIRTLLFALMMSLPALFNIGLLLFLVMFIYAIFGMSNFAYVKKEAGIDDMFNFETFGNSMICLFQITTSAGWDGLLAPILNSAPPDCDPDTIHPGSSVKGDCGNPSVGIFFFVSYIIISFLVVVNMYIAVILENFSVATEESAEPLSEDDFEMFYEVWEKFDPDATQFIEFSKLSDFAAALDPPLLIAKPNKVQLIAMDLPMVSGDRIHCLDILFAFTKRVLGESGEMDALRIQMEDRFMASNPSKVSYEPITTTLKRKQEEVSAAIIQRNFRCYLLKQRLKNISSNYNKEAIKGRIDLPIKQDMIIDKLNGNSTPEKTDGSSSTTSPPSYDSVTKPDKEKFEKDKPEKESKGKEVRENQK

Translocator protein [5] = target: T1, Translocator protein; test: Binding affinity to peripheral benzodiazepine receptor at 10 uM
[6] = target: T2, Nav1.5 (sodium channel protein type 5 subunit alpha) (Homo sapiens, UniProt Q14524); test: Inhibition of human Nav1.5 channel at 10 uM
[7] = target: T3, Sodium channel protein type 10 subunit alpha (Homo sapiens, UniProt Q9Y5Y9); test: Inhibition of human recombinant Nav 1.8 channel expressed in HEK293 cells at 0.03 uM; assay type: cell-based
Target sequence in this assay (Q9Y5Y9 whole entry, looked up): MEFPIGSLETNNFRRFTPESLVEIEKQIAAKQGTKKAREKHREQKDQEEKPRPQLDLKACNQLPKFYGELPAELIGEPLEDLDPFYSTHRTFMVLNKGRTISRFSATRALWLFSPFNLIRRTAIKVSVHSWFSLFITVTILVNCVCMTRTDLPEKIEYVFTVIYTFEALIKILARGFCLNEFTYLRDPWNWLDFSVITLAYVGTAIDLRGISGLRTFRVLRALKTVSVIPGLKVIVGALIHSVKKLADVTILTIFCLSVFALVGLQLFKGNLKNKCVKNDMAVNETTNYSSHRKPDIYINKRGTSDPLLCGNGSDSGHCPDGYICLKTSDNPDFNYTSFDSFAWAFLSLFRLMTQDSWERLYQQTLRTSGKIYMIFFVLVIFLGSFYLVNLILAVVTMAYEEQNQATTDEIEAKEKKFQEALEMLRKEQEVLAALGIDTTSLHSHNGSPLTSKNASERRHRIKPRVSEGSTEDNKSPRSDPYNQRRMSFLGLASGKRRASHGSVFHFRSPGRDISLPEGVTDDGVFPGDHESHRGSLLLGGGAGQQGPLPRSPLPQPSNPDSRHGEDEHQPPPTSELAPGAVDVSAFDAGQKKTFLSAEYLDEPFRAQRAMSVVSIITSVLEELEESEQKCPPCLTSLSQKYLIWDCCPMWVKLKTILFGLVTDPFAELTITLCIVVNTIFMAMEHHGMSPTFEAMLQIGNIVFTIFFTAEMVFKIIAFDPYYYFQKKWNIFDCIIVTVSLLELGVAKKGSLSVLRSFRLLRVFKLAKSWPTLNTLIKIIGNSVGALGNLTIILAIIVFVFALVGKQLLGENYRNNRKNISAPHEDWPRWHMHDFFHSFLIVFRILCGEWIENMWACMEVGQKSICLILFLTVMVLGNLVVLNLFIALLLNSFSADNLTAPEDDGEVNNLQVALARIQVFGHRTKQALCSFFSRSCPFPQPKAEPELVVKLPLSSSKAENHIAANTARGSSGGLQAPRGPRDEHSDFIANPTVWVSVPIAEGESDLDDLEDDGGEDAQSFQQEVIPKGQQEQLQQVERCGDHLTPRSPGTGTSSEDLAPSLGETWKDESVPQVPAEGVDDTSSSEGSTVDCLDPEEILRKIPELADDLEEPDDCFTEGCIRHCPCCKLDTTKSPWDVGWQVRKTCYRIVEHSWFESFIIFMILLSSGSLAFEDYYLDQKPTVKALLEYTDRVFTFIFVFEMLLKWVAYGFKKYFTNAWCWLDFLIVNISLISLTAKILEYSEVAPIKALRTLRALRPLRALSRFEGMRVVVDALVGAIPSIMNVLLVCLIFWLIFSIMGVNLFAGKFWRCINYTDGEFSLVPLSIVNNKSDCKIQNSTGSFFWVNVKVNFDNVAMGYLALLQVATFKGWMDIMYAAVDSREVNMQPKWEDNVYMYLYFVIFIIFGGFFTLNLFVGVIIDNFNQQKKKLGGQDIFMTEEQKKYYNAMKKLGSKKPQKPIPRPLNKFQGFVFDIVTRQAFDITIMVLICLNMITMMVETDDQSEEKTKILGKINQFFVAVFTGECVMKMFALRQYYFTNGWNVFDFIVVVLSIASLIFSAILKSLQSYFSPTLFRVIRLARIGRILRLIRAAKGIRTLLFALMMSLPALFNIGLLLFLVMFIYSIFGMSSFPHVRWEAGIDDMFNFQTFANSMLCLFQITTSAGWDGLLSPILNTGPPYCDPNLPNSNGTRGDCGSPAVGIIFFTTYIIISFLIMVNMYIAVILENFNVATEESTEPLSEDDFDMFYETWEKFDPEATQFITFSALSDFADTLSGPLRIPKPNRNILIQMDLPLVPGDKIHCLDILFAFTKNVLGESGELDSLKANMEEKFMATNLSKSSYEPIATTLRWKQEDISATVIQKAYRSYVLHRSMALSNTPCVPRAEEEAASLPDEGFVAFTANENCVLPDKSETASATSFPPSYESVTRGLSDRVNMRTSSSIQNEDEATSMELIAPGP

[8] = target: T2, Nav1.5 (sodium channel protein type 5 subunit alpha); test: Inhibition of human Nav1.5 channel at 3 uM
Rattus norvegicus [9] = test: Antinociceptive activity in ip dosed Sprague-Dawley rat assessed as attenuation of mechanical allodynia in chung model of neuropathic pain; assay type: functional
[10] = Activity at rat dorsal root ganglion in resting state with prepulse voltage of -100 mV assessed as blockade of TTx-resistant sodium current at 0.1 uM by whole-cell patch clamp technique; assay type: functional
Rattus norvegicus [11] = test: Antinociceptive activity in ip dosed Sprague-Dawley rat assessed as reduction of CFA-induced thermal hyperalgesia; assay type: functional; parameters: Activity: scale not given: the % may be the effect or the level left
[12] = target: T3, Sodium channel protein type 10 subunit alpha; test: Activity at human recombinant Nav 1.8 channel expressed in HEK293 cells in inactivated state with prepulse voltage of -40 mV assessed as blockade of TTx-resistant sodium current at 0.01 uM; assay type: cell-based
Target sequence in this assay (Q9Y5Y9 whole entry, looked up): as above

[13] = target: T3, Sodium channel protein type 10 subunit alpha; test: Activity at human recombinant Nav 1.8 channel expressed in HEK293 cells in resting state with prepulse voltage of -100 mV assessed as blockade of TTx-resistant sodium current at 0.01 uM; assay type: cell-based
Target sequence in this assay (Q9Y5Y9 whole entry, looked up): as above

[14] = target: T3, Sodium channel protein type 10 subunit alpha; test: Activity at human recombinant Nav 1.8 channel expressed in HEK293 cells in resting state with prepulse voltage of -100 mV assessed as blockade of TTx-resistant sodium current at 0.03 uM; assay type: cell-based
Target sequence in this assay (Q9Y5Y9 whole entry, looked up): as above

[15] = target: T3, Sodium channel protein type 10 subunit alpha; test: Inhibition of human recombinant Nav 1.8 channel expressed in HEK293 cells at 0.01 uM; assay type: cell-based
Target sequence in this assay (Q9Y5Y9 whole entry, looked up): as above

[16] = Activity at rat dorsal root ganglion in resting state with prepulse voltage of -100 mV assessed as blockade of TTx-resistant sodium current at 0.3 uM by whole-cell patch clamp technique; assay type: functional
[17] = Intrinsic clearance in Sprague-Dawley rat microsomes after 1 hr; assay type: ADME, Liver, Microsome
[18] = Volume of distribution at steady state in Sprague-Dawley rat; assay type: ADME, organism-based; conditions: in vivo, read-out: Vdss
[19] = target: Sodium channel protein type 9 subunit alpha (Homo sapiens) (UniProt Q15858); test: Inhibition of human Nav1.7 channel at 3 uM
[20] = Cmax in Sprague-Dawley rat at 10 mg/kg, ip; assay type: ADME, organism-based; parameters: dose 10 mg/kg, route intraperitoneal; conditions: in vivo
[21] = target: Sodium channel protein type 9 subunit alpha (Homo sapiens) (UniProt Q15858); test: Inhibition of human Nav1.7 channel at 10 uM
[22] = Bioavailability in Sprague-Dawley rat at 10 mg/kg, ip; assay type: ADME, organism-based; conditions: in vivo
[23] = target: Sodium channel protein type 2 subunit alpha (Homo sapiens) (UniProt Q99250); test: Inhibition of human Nav1.2 channel at 3 uM
Rattus norvegicus [24] = test: Antinociceptive activity in ip dosed Sprague-Dawley rat assessed as reduction of mechanical allodynia in Bennett model of neuropathic pain; assay type: functional; parameters: Activity: scale not given: the % may be the effect or the level left
[25] = Half life in Sprague-Dawley rat; assay type: ADME, organism-based; conditions: in vivo
[26] = target: Sodium channel protein type 3 subunit alpha (Homo sapiens) (UniProt Q9NY46); test: Inhibition of human Nav1.3 channel at 10 uM
[27] = Activity at rat dorsal root ganglion in inactivated state with prepulse voltage of -40 mV assessed as blockade of TTx-resistant sodium current at 0.1 uM by whole-cell patch clamp technique; assay type: functional
[28] = target: T3, Sodium channel protein type 10 subunit alpha; test: Inhibition of human recombinant Nav 1.8 channel expressed in HEK293 cells; assay type: cell-based
Target sequence in this assay (Q9Y5Y9 whole entry): as the sequence (Q9Y5Y9 whole entry, looked up) above

[29] = target: Sodium channel protein type 10 subunit alpha (Mus musculus, UniProt Q6QIY3); test: Inhibition of mouse recombinant Nav 1.8 channel expressed in HEK293 cells by isotopic efflux assay; assay type: cell-based
[30] = target: Sodium channel protein type 2 subunit alpha (Homo sapiens) (UniProt Q99250); test: Inhibition of human Nav1.2 channel at 10 uM
[31] = Clearance in Sprague-Dawley rat plasma; assay type: ADME, organism-based
[32] = target: T3, Sodium channel protein type 10 subunit alpha; test: Activity at human recombinant Nav 1.8 channel expressed in HEK293 cells in inactivated state with prepulse voltage of -40 mV assessed as blockade of TTx-resistant sodium current at 0.03 uM; assay type: cell-based
Target sequence in this assay (Q9Y5Y9 whole entry, looked up): as above

[33] = Protein binding in Sprague-Dawley rat plasma; assay type: ADME, cell-free; conditions: read-out: PPB (converted)
[34] = Oral bioavailability in Sprague-Dawley rat; assay type: ADME, organism-based; conditions: in vivo
[35] = Activity at rat dorsal root ganglion in inactivated state with prepulse voltage of -40 mV assessed as blockade of TTx-resistant sodium current at 0.3 uM by whole-cell patch clamp technique; assay type: functional
[36] = target: Sodium channel protein type 5 subunit alpha (Homo sapiens, UniProt Q14524); test: (§1) Inhibition of human Nav1.5 channel at 1 uM
[37] = target: T3, Sodium channel protein type 10 subunit alpha; test: Activity at human recombinant Nav 1.8 channel expressed in HEK293 cells in resting state with prepulse voltage of -100 mV assessed as blockade of TTx-resistant sodium current at 1 uM; assay type: cell-based
[38] = target: T3, Sodium channel protein type 10 subunit alpha; test: Activity at human recombinant Nav 1.8 channel expressed in HEK293 cells in inactivated state with prepulse voltage of -40 mV assessed as blockade of TTx-resistant sodium current at 1 uM; assay type: cell-based
[39] = target: T3, Sodium channel protein type 10 subunit alpha; test: Activity at human recombinant Nav 1.8 channel expressed in HEK293 cells in resting state with prepulse voltage of -100 mV assessed as blockade of TTx-resistant sodium current at 0.1 uM; assay type: cell-based
[40] = Activity at rat dorsal root ganglion in resting state with prepulse voltage of -100 mV assessed as blockade of TTx-resistant sodium current at 1 uM by whole-cell patch clamp technique; assay type: functional
[41] = Aqueous solubility of the compound; assay type: physicochemical
[42] = Activity at rat dorsal root ganglion in inactivated state with prepulse voltage of -40 mV assessed as blockade of TTx-resistant sodium current at 1 uM by whole-cell patch clamp technique; assay type: functional
[43] = target: T3, Sodium channel protein type 10 subunit alpha; test: Activity at human recombinant Nav 1.8 channel expressed in HEK293 cells in inactivated state with prepulse voltage of -40 mV assessed as blockade of TTx-resistant sodium current at 0.1 uM; assay type: cell-based
[44] = target: T3, Sodium channel protein type 10 subunit alpha; test: Inhibition of human recombinant Nav 1.8 channel expressed in HEK293 cells at 0.1 uM; assay type: cell-based
[45] = target: Sodium channel protein type 3 subunit alpha (Homo sapiens) (UniProt Q9NY46); test: Inhibition of human Nav1.3 channel at 1 uM
[46] = target: Sodium channel protein type 2 subunit alpha (Homo sapiens) (UniProt Q99250); test: Inhibition of human Nav1.2 channel at 1 uM
[47] = Oral bioavailability in Sprague-Dawley rat at 10 mg/kg; assay type: ADME, organism-based; conditions: in vivo
[48] = target: T2, Nav1.5 (sodium channel protein type 5 subunit alpha); test: as §1; conditions: human
[49] = target: T3, Sodium channel protein type 10 subunit alpha; test: Inhibition of human recombinant Nav 1.8 channel expressed in HEK293 cells at 1 uM; assay type: cell-based
[50] = Rattus norvegicus, Sprague-Dawley, ip

Structure (SMILES): Cc1cccc(NC(=O)c2ccc(-c3ccc(C#N)cc3)o2)c1
- Kp [1]: 0.35
- IC50 [2]: 5800 nM
- IC50 (Translocator protein [3]): > 2000 nM
- inhibition [4]: 47%
- inhibition (Translocator protein [5]): > 60%
- inhibition at 10 µM [6]: 74%
- inhibition [7]: 51%
- inhibition at 3 µM [8]: 61%
- Activity (Rattus norvegicus [9]): 86%
- ED50 (Rattus norvegicus [9]; [50]): 38 mg/kg
- inhibition at 0.1 µM [10]: 38%
- Activity (Rattus norvegicus [11]): 55%
- ED50 (Rattus norvegicus [11]; [50]): 98 mg/kg
- inhibition [12]: 33%
- inhibition [13]: 14%
- inhibition [14]: 29%
- inhibition [15]: 33%
- inhibition at 0.3 µM [16]: 52%
- microsomal CLint [17]: 260 µL/min/mg
- Vd [18]: 1.9 L/kg
- inhibition [19]: 26%
- Cmax [20]: 750 ng/mL
- inhibition [21]: 54%
- bioavailability [22]: 36%
- inhibition [23]: 32%
- Activity (Rattus norvegicus [24]): 21%
- ED50 (Rattus norvegicus [24]; [50]): > 100 mg/kg
- half-life [25]: 1.9 h
- inhibition [26]: 58%
- inhibition at 0.1 µM [27]: 41%
- IC50 [28]: 79 nM
- IC50 [29]: 480 nM
- inhibition [30]: 57%
- clearance [31]: 40 mL/min/kg
- inhibition [32]: 51%
- fraction unbound [33]: 0.017
- bioavailability [34]: 4%
- inhibition at 0.3 µM [35]: 74%
- IC50 [36]: > 2000 nM

Structure (SMILES): Cc1cccc(NC(=N)c2ccc(-c3ccc(Cl)cc3)o2)c1.Cl
- IC50 [2]: 2100 nM
- inhibition [37]: 5%
- inhibition [38]: 75%
- inhibition [39]: 1%
- inhibition at 1 µM [40]: 10%
- inhibition at 0.3 µM [16]: 2%
- microsomal CLint [17]: 220 µL/min/mg
- solubility [41]: 250 µg/mL
- inhibition at 1 µM [42]: 60%
- inhibition [43]: 46%
- IC50 [29]: 1900 nM
- inhibition [44]: 46%
- inhibition [45]: 36%
- inhibition at 0.3 µM [35]: 45%
- inhibition [46]: 52%
- bioavailability [47]: 67%
- inhibition at 1 µM [48]: 56%
- inhibition [49]: 75%
